Read-outs that look alike come from different tables or passages of the source.
How the values were obtained:
[1] = tested on: thymidylate synthase (TS); test: Down-regulation of TS in H630 cells treated with acyl-homoserine lactones (Western blotting); assay type: cell-based, human; settings: overnight (approximately 16 hours)
Text: FIG. 6. A representation of the ability of acyl homoserine lactones to down-regulate TS in H630 cells.
The signaling molecules produced by the rTS signaling pathway cause a decrease in the amount of TS found in cells. These signaling molecules can simulate the effects of the compound 3-oxo-hexanoyl homoserine lactone in activating the receptor for this compound when it is present in a recombinant bacteria. […] This hypothesis was validated by the results of an experiment portrayed in FIG. 6. Accordingly, the down-regulation of TS in H630 (human colon cancer) cells treated with acyl-homoserine lactones was tested. Cells growing in RPMI 1640 culture medium, supplemented with 10% dialyzed fetal bovine serum at 37° C. in an atmosphere of 95:5 air:CO2. The compounds with the structures shown were added to the cells and allowed to incubate overnight (approximately 16 hours). The cells were extracted and TS measured by Western blotting as described. The compounds from top to bottom are: (1) 3-hydroxy butanoyl homoserine lactone, (2) butanoyl homoserine lactone; (3) 3-oxo-hexanoyl homoserine lactone; (4) d, 1-hexanoyl homoserine lactone, and (5) 1-homoserine lactone. Tubulin is shown as a loading standard.

[2] = tested on: thymidylate synthase (TS); test: Luciferase assay in H630 cells transiently transfected with pG3E1-2TBE; assay type: cell-based, human; settings: 5-FU 10 μM for 24 hr; H630 cells transfected with pG3E1-2TBE
Description: FIGS. 2a-2c. Activity of the EGR-I promoter and TBEs in pGL3-basic plasmid. FIG. 2a—the EGR-I promoter was added upstream of the luciferase reporter gene of pGL3-basic plasmid as described in Example 1. The resultant construct pG3E1 was transfected into H630 cells and the luciferase assay was performed 24 hr later. Control: mock transfection; pG3E1: 5 μg of pG3E1 plasmid DNA per 2×10^6 cells was used for transfection. RLU: relative light units. In FIGS. 2b and 2c, TS-binding elements were synthesized and added into pG3E1. The pG3E1-2TBE (5 μg) was transfected into six replicate aliquots of H630 cells (2×10^6) and plated separately. After 24 hr, three of transfected samples were treated with 5-FU (10 μM) for an additional 24 hr (FIG. 2c), the cells were then processed for the luciferase assay according to the manufacturer's instructions. Control: mock transfection; pG3E1: transfected with pG3E1; pG3E1+T: transfected with pG3E1-2TBE only (FIG. 2b). P+T+FU: transfected with pG3E1-2TBE and 24 hr following transfection treated with 5-FU (FIG. 2c). Data are the average of triplicate experiments±S.D.
This example describes the transient transfection of cells with the construct of the present invention. […]

[3] = tested on: thymidylate synthase (TS); test: Evaluation of TS expression by Western blotting in H630-C6 cells; assay type: cell-based, human; settings: H630-C6 cells, 18 hr treatment
Description: FIGS. 4a and 4b. Evaluation of TS expression by Western blotting. […] The cells were harvested for Western blots.
This example describes the relationship between TS levels and luciferase production by various known TS inhibitors. Western blotting was performed as previously described (Dolnick and Black, 1996). Briefly, H630-C6 cells were washed with PBS and extracted with RIPA buffer. 10 μg of total protein was resolved by electrophoresis in a 10% SDS-PAGE and was blotted onto a PVDF membrane (Immobilon-P, Millipore, Bedford, Mass.). The membrane was hybridized with rabbit polyclonal antibody against TS (a gift from Dr. Edward Chu, VA Cancer Center, Yale University, West Haven, Conn.) diluted in SuperBlock Blocking Buffer (Pierce, Rockford, Ill.) plus 0.25% Tween 20 for one hour and hybridized with HRP-linked anti-rabbit secondary antibody (Jackson Laboratories) for an additional one hour. The membrane was detected with SuperSignal West Dura Extended Duration Substrate (Pierce, Rockford, Ill.) and was visualized by exposing the blot to Kodak XAR-5 film. […] The resulting signal was detected as described above.
The induction of luciferase activity depends upon the ability to reduce the amount of endogenous TS bound to the TBEs in the recombinant luciferase transcripts. Dissociation of TS from the luciferase reporter mRNA is expected to be accompanied by the removal of TS from TBEs located in other mRNAs as well, such as endogenous TS mRNA. Therefore, an increase in TS is expected to accompany the increase in luciferase. To verify whether a translational mechanism is involved we evaluated the levels of TS from cells treated with the compounds described above by Western blotting.

[4] = tested on: thymidylate synthase (TS); test: Luciferase assay in stably transfected H630-C6 cells (pG3E1-2TBE-Neo); assay type: cell-based, human
Description: FIGS. 3a-3j. RLU production in H630-C6 cells in response to TS inhibitors. H630-C6 cells were evaluated for luciferase activity in response to treatment with the indicated compounds. The cells were exposed to the compounds at the indicated concentrations for 18 hr and luciferase assays were then performed according to the manufacturer's instructions. The mean values of triplicates or quadruplicates are shown along with the standard derivations.
This example describes the stable transfection of cells with the DNA construct of the present invention. To facilitate selection of stable transformants, we added a neomycin-resistance gene to the pG3E1-2TBE (FIG. 1) to generate a new plasmid termed pG3E1-2TBE-Neo as follows. For stable transfection, pG3E1-2TBE-Neo was linearized at the ampicillin resistance gene with Ase I and was introduced into H630 cells as described above. At 24 hrs post-transfection, the cells were exposed to 400 μg/ml of G418 for two weeks. Individual clones were picked at that time and screened for their ability to induce luciferase in response to treatment with 5-FU, a known TS inhibitor. Following selection with G418 and evaluation for changes in luciferase activity after exposure of the cells to 5-FU, the cloned subline H630/pG3E1-2TBE-Neo-L1-2-C6 (H630-C6) was chosen for further study.
The stably transfected H630-C6 cell line was maintained in RPMI 1640 plus 10% dialyzed FBS and 400 μg/ml of geneticin (G418). For luciferase assays, 2×10^4 cells were seeded in each well of a 24-well plate in RPMI 1640 medium plus 10% FBS without G418 and were allowed to attach at least six hr, followed by drug exposure overnight (approximately 18 hr). The cells were then washed with PBS (137 mM NaCl, 2.7 mM KCl, 4.3 mM Na2HPO4, 1.4 mM KH2PO4, pH 7.4), lysed with Passive Lysis Buffer (Promega, Madison) and assayed for luciferase activity using the Luciferase Assay System (Promega, Madison, Wis.) according to the manufacturer's instructions. Relative light units (RLU) were measured with a Lumat LB 9501 luminometer (EG & G Berthold, Wildbad, Germany).
To test H630-C6 as a tool to identify TS modulators three different classes of compounds, i.e., specific or predominantly specific TS inhibitors, agents that inhibit folate pathways or inhibit TS as well as having other targets, and agents that act through TS unrelated sites of action were evaluated for their ability to induce changes in luciferase activity.

[5] = tested on: thymidylate synthase (TS); test: Multiwell luciferase assay in RKO colon tumor cell lines containing pG3E1-2TBE-Neo; settings: for % C (effect relative to control without 5-FU), RKO clone 1 / % C (effect relative to control without 5-FU), RKO clone 4 / % C (effect relative to control without 5-FU), RKO clone 7 / RLU RKO clone 1 / RLU RKO clone 4 / RLU RKO clone 7: approximately 18 hr

CCCCCC(=O)NC1CCOC1=O (single isomer, unassigned) [d-enantiomer]
activity of the enantiomers, concluded from the comparison with the racemic mixture [1]: inactive

CCCCCC(=O)N[C@H]1CCOC1=O [1-hexanoyl compound]
activity in down-regulating TS relative to the racemic mixture (d, 1) [1]: twice as active
activity of the enantiomers, concluded from the comparison with the racemic mixture [1]: active

O=c1[nH]cc(F)c(=O)[nH]1 [5-FU, 5-Fluorouracil]
increase in the RLU compared with untreated transfectants [2]: 33±13.8%
mobility of TS in SDS-PAGE / Western blot [3]: altered the mobility of TS
concentration at which the increase in RLU output plateaued ([4]; H630-C6 cells, 18 hr exposure): 50 µM
lowest concentration at which changes in RLU can be detected ([5]; RKO clones, Table 1): 0.1 µM
% C (effect relative to control without 5-FU), RKO clone 1 ([5]; [5-FU] 0.1 μM): 117%
% C (effect relative to control without 5-FU), RKO clone 4 ([5]; [5-FU] 0.1 μM): 121%
% C (effect relative to control without 5-FU), RKO clone 7 ([5]; [5-FU] 0.1 μM): 120%
RLU RKO clone 1 ([5]; [5-FU] 0.1 μM): 1137 RLU
RLU RKO clone 4 ([5]; [5-FU] 0.1 μM): 1078 RLU
RLU RKO clone 7 ([5]; [5-FU] 0.1 μM): 799 RLU
% C (effect relative to control without 5-FU), RKO clone 1 ([5]; [5-FU] 0.5 μM): 135%
% C (effect relative to control without 5-FU), RKO clone 4 ([5]; [5-FU] 0.5 μM): 112%
% C (effect relative to control without 5-FU), RKO clone 7 ([5]; [5-FU] 0.5 μM): 157%
RLU RKO clone 1 ([5]; [5-FU] 0.5 μM): 1314 RLU
RLU RKO clone 4 ([5]; [5-FU] 0.5 μM): 999 RLU
RLU RKO clone 7 ([5]; [5-FU] 0.5 μM): 1043 RLU
% C (effect relative to control without 5-FU), RKO clone 1 ([5]; [5-FU] 2.0 μM): 140%
% C (effect relative to control without 5-FU), RKO clone 4 ([5]; [5-FU] 2.0 μM): 137%
% C (effect relative to control without 5-FU), RKO clone 7 ([5]; [5-FU] 2.0 μM): 168%
RLU RKO clone 1 ([5]; [5-FU] 2.0 μM): 1356 RLU
RLU RKO clone 4 ([5]; [5-FU] 2.0 μM): 1214 RLU
RLU RKO clone 7 ([5]; [5-FU] 2.0 μM): 1119 RLU
% C (effect relative to control without 5-FU), RKO clone 1 ([5]; [5-FU] 10 μM): 179%
% C (effect relative to control without 5-FU), RKO clone 4 ([5]; [5-FU] 10 μM): 172%
% C (effect relative to control without 5-FU), RKO clone 7 ([5]; [5-FU] 10 μM): 243%
RLU RKO clone 1 ([5]; [5-FU] 10 μM): 1738 RLU
RLU RKO clone 4 ([5]; [5-FU] 10 μM): 1527 RLU
RLU RKO clone 7 ([5]; [5-FU] 10 μM): 1614 RLU
% C (effect relative to control without 5-FU), RKO clone 1 ([5]; [5-FU] 50 μM): 148%
% C (effect relative to control without 5-FU), RKO clone 4 ([5]; [5-FU] 50 μM): 175%
% C (effect relative to control without 5-FU), RKO clone 7 ([5]; [5-FU] 50 μM): 156%
RLU RKO clone 1 ([5]; [5-FU] 50 μM): 1438 RLU
RLU RKO clone 4 ([5]; [5-FU] 50 μM): 1559 RLU
RLU RKO clone 7 ([5]; [5-FU] 50 μM): 1560 RLU

Nc1ncn([C@@H]2O[C@H](CO)[C@@H](O)[C@H]2O)c(=O)n1 [AC, 5-azacytidine]
TS protein level by Western blotting [3]: did not alter TS protein levels
change in luciferase activity (RLU), in words ([4]; H630-C6 cells, 18 hr exposure): no increase

O=c1[nH]c(=O)n([C@H]2C[C@H](O)[C@@H](CO)O2)cc1F [FUdR, 5-fluoro-2′-deoxyuridine]
mobility of TS in SDS-PAGE / Western blot [3]: altered the mobility of TS
concentration at which the increase in RLU output plateaued ([4]; H630-C6 cells, 18 hr exposure): 0.005 µM

O=c1[nH]c(=O)n([C@@H]2O[C@H](CO)[C@@H](O)[C@H]2O)cc1F [FUrd, 5-fluorouridine]
mobility of TS in SDS-PAGE / Western blot [3]: altered the mobility of TS
concentration at which the increase in RLU output plateaued ([4]; H630-C6 cells, 18 hr exposure): 2.5 µM

CN[C@@H]1[C@@H](O)[C@@H](O[C@@H]2[C@@H](O)[C@H](O[C@H]3O[C@H]([C@@H](C)O)[C@@H](O)[C@H](O)[C@H]3N)[C@@H](N)C[C@H]2N)OC[C@]1(C)O [G418, geneticin]
TS protein level by Western blotting [3]: inactive

CN(Cc1cnc2nc(N)nc(N)c2n1)c1ccc(C(=O)N[C@@H](CCC(=O)O)C(=O)O)cc1 [MTX, methotrexate]
TS protein level by Western blotting [3]: elevated TS protein levels
change in luciferase activity (RLU), in words [4]: increases in luciferase that were comparable
elevation of luciferase activity [4]: approximately two-fold

O=c1[nH]c(=O)n([C@H]2C[C@H](O)[C@@H](CO)O2)cc1C(F)(F)F [TFT, trifluorothymidine]
concentration at which the increase in RLU output plateaued ([4]; H630-C6 cells, 18 hr exposure): 0.1 µM

Nc1nc2c([nH]c(=S)n2[C@@H]2O[C@H](CO)[C@@H](O)[C@H]2O)c(=O)[nH]1 [TG, 8-thioguanosine]
TS protein level by Western blotting [3]: did not alter TS protein levels
change in luciferase activity (RLU), in words ([4]; H630-C6 cells, 18 hr exposure): no increase

Cc1nc2ccc(CN(C)c3ccc(C(=O)N[C@@H](CCC(=O)O)C(=O)O)s3)cc2c(=O)[nH]1 [ZD1694, Raltitrexed]
elevation of luciferase activity ([4]; 100 μM, H630-C6 cells, 18 hr): approximately two-fold
change in luciferase activity (RLU), in words ([4]; H630-C6 cells, 18 hr exposure): increases in luciferase that were comparable

— patent US20040161781A1, “Compositions and methods for identifying thymidylate synthase modulators” (priority 2002, published 2004)
